Measured values published in ChEMBL document CHEMBL1154896, “Antineoplastic agents. 573. isolation and structure of papilistatin from the papilionid butterfly Byasa polyeuctes termessa” (2010).
In brackets after ≈: the same amount, converted by molar mass.

Columns and labels:
Assay type in all cases: functional
[1] = system: Neisseria gonorrhoeae; assay: Antibacterial activity against Neisseria gonorrheae ATCC 49226
[2] = system: KM-20L2; assay: Cytotoxicity against human KM20L2 cells after 48 hrs by SRB assay; conditions: KM-20L2, 48 h
[3] = system: BXPC-3; assay: Cytotoxicity against human BxPC3 cells after 48 hrs by SRB assay; conditions: BXPC-3, 48 h
[4] = system: Micrococcus luteus; assay: Antibacterial activity against Micrococcus luteus Presque Isle 456
[5] = system: Staphylococcus aureus; assay: Antibacterial activity against Staphylococcus aureus ATCC 29213
[6] = system: Enterococcus faecalis; assay: Antibacterial activity against Enterococcus faecalis ATCC 29212
[7] = system: Streptococcus pneumoniae; assay: Antibacterial activity against Streptococcus pneumoniae ATCC 6303

SMILES: COc1cccc2c1cc(C(=O)O)c1c(C(=O)O)cc3c(c12)OCO3 [PAPILISTATIN]
- MIC [1]: 8 µg/mL (≈ 23.5 µM)
- GI50 [2]: 0.096 µg/mL (≈ 0.282 µM)
- GI50 [3]: 0.093 µg/mL (≈ 0.273 µM)
- MIC [4]: 16 µg/mL (≈ 47 µM)
- MIC [5]: 64 µg/mL (≈ 188 µM)
- MIC [6]: 16 µg/mL (≈ 47 µM)
- MIC [7]: 32 µg/mL (≈ 94 µM)
